Assay results from patent US20120065126A1, “Pharmaceutical Compositions Containing Antifungal Peptides” (BASF SE, priority 2009, published 2012).
Like-named read-outs stand apart in the source and are kept apart here.

Key:
M. furfur = assay type: cell-based, Malassezia furfur; settings: shampoo base formulation 31-3 present
Description: The studies described hereinafter were conducted on the Malassezia furfur strain DSM 6170.
The minimum inhibitory concentration (MIC) of peptide P18 (H-KWKLFKKIPKFLHLAKKF-NH2; carboxyl terminus amidated) in the presence of shampoo base formulation 31-3 (Table 10) was tested in the following manner: […]
To prepare the shampoo base formulation, the Texapon NSO and Tego Betain L7 components were mixed and dissolved. NaOH was used to adjust the pH to pH 6-7.
The growth test was effected as follows: a shake culture containing M472 Pityrosporum medium was inoculated with M. furfur and incubated with shaking at 30° C. and 200 rpm overnight.
A 96-well microtiter plate was filled with 170 μl per well of M472 Pityrosporum medium and inoculated with 10 μl of M. furfur suspension from an overnight culture. This corresponded to an optical density of 0.02-0.1, measured at 620 nm. 20 μl of shampoo base formulation 31-3 were added to this mixture. Peptide P18 was dissolved with a concentration of 10 mM in DMSO.
The microtiter plate was incubated with shaking at 30° C.
After incubation for 24 hours, the colony forming units (CFU) were determined by resuspending 1 μl of each of the suspensions in 10 μl of medium, and then streaking them. After incubation over the course of 6 days, the colonies on the plate were counted. The experiment was conducted in double determination.

M. furfur DSM 6170 = assay: Comparison of the efficacy of P18 and AFPP (CFU); assay type: cell-based, Malassezia furfur
Text: WO 00/32220 describes the effect of the antifungal polypeptide AFPP from Aspergillus giganteus on the growth of Malassezia furfur.
In order to compare the effect of P18 (SEQ ID NO. 3; sequence: KWKLFKKIPKFLHLAKKF-NH2 (Bachem. AG, Switzerland)) with the effect of AFPP, AFPP was provided from the culture supernatant of the A. giganteus strain CBS 526.65 (Organobalance, Berlin). The purification was effected according to Theis et al. (Theis T., Wedde M., Meyer V., Stahl U. (2003) The antifungal protein from Aspergillus giganteus causes membrane permeabilization. Antimicrob. Agents Chemother. 47:588-593; Theis T., Marx F., Salvenmoser W., Stahl U., Meyer V. (2005) New insights into the target site and mode of action of the antifungal protein (AFP) of Aspergillus giganteus. Res Microbiol. 156:47-56.)
After replacing the buffer and concentration, a 2% (w/w) AFPP solution in phosphate buffer (10 mM sodium phosphate, pH 7.5, 100 mM NaCl) was obtained.
The P18 concentrate was also present as a 2% (w/w) solution in phosphate buffer.
Growth medium: M472 Pityrosporum medium according to DSMZ (German Collection of Microorganisms and Cell Cultures, Braunschweig, Germany) 40 g of malt extract (Becton, Dickinson and Company, Sparks, USA) 20 g of ox bile (Merck, Darmstadt, Germany)
The growth test was effected as follows: a shake culture containing M472 Pityrosporum medium was inoculated with M. furfur DSM 6170 (DSMZ) and incubated with shaking at 30° C. and 200 rpm overnight.
For each test mixture, a 1.5 ml reaction vessel was filled with Pityrosporum medium and inoculated with the M. furfur overnight culture to give a start OD of 0.1, measured at 600 nm.
The growth of the following test mixtures was monitored: • M. furfur suspension and addition of 30 μl of phosphate buffer (in order to rule out any influence of the phosphate buffer on the effect of the active peptides at a final concentration of 0.1%) • M. furfur suspension and addition of 60 μl of phosphate buffer (in order to rule out any influence of the phosphate buffer on the effect of the active peptides at a final concentration of 0.2%) • M. furfur suspension and addition of 90 μl of phosphate buffer (in order to rule out any influence of the phosphate buffer on the effect of the active peptides at a final concentration of 0.3%) • M. furfur suspension with a final P18 concentration of 0.1% in the reaction volume • M. furfur suspension with a final P18 concentration of 0.2% in the reaction volume • M. furfur suspension with a final P18 concentration of 0.3% in the reaction volume • M. furfur suspension with a final AFPP concentration of 0.1% in the reaction volume • M. furfur suspension with a final AFPP concentration of 0.2% in the reaction volume • M. furfur suspension with a final AFPP concentration of 0.3% in the reaction volume
The reaction volume was 600 μl in each case. The growth of M. furfur in the test mixtures was observed over a period of 24 hours. For this purpose, the mixtures were diluted 1:10 in M472 medium after 5 minutes, 20 minutes and 24 hours, and then 10 μl were plated out. The CFU (colony forming units) were determined by counting after incubation at 30° C. for 6 days.
The experiments were effected in double determination and were independently repeated at least once.

With “H-KWKLFKKIPKFLHLAKKF-NH2 [P18, H-KWKLFKKIPKFLHLAKKF-NH2]” as the substance, how does the “Colony forming units (CFU) after incubation time of 24 hours” value (from here on “Colony forming units (CFU)”) (M. furfur; P18 25 μM) read?
The value was 80 CFU.

What about the “Colony forming units (CFU)” value (M. furfur; P18 50 μM) of the same substance?
Its value is 32 CFU.

And the “Colony forming units (CFU)” value (M. furfur; P18 100 μM)?
Its value is 0 CFU.

What about the “Colony forming units (CFU)” value (M. furfur; P18 200 μM) of the same substance?
The value was 0 CFU.

And the “Colony forming units (CFU)” value (M. furfur; P18 300 μM)?
Its value is 0 CFU.

What about the “Colony forming units (CFU)” value (M. furfur; P18 400 μM) of the same substance?
The value was 0 CFU.

And the “Colony forming units (CFU)” value (M. furfur; P18 500 μM)?
The value was 0 CFU.

What about the “Colony forming units after the incubation time specified” value (M. furfur DSM 6170; 0.1%, 5 minutes) of the same substance?
Its value is 205 ± 192 CFU.

And the “Colony forming units after the incubation time specified” value (M. furfur DSM 6170; 0.1%, 20 minutes)?
The value was 48 ± 56 CFU.

What about the “Colony forming units after the incubation time specified” value (M. furfur DSM 6170; 0.1%, 24 hours) of the same substance?
Its value is 0 CFU.

And the “Colony forming units after the incubation time specified” value (M. furfur DSM 6170; 0.2%, 5 minutes)?
Its value is 56 ± 52 CFU.

What about the “Colony forming units after the incubation time specified” value (M. furfur DSM 6170; 0.2%, 20 minutes) of the same substance?
The value was 5 ± 4 CFU.

And the “Colony forming units after the incubation time specified” value (M. furfur DSM 6170; 0.2%, 24 hours)?
The value was 0 CFU.

What about the “Colony forming units after the incubation time specified” value (M. furfur DSM 6170; 0.3%, 5 minutes) of the same substance?
Its value is 18 ± 19 CFU.

What about the “Colony forming units after the incubation time specified” value (M. furfur DSM 6170; 0.3%, 20 minutes) of the same substance?
The value was 1 ± 0 CFU.

And the “Colony forming units after the incubation time specified” value (M. furfur DSM 6170; 0.3%, 24 hours)?
Its value is 0 CFU.
